Some results are limits rather than exact numbers.

This test concerns the target Nrf2-Keap1 (Homo sapiens, UniProt Q14145). The test can be described thus: DiscoveRx PathHunter Nrf2-Keap1 nuclear translocation functional assay (agonist format). The test is classed as cell-based. The following applies: in duplicate, agonist mode; for EC50: 10 concentrations, 3-fold serial dilutions, 30 μM top concentration, normalized to CDDO methyl ester and vehicle; for activation at 10 µM / % Activation @ 10 μM: single concentration of 10 μM, normalized to control ligand (CDDO methyl ester) and vehicle. On the procedure: DiscoveRx PathHunter® Nrf2-Keap1 Functional Assay
DiscoveRx's Nrf2-Keapl translocation assay was used to profile compounds. Primary Screening was performed in duplicate at a single concentration of 10 μM and EC50 determinations were performed in duplicate at 10 concentrations with 3-fold serial dilutions at a 30 μM top concentration or an otherwise specified top concentration.
The PathHunter® Nuclear Translocation assay detects translocation of a target protein to, or from, the nucleus. In this system, Prolink™ (PK), a small enzyme fragment, is fused to the protein of interest and Enzyme Acceptor (EA) is localized in the nucleus. Activation of the signaling pathway induces the target protein to either transit into the nucleus, thus forcing complementation of the PK and EA fragments, or out of the nucleus, hindering complementation of the fragments.
Cell handling: PathHunter Pathway cell lines were expanded from freezer stocks according to standard procedures. 5000 cells were seeded in Cell Plating Reagent 0 (containing 1% FBS) to a total volume of 20 μL into white walled, 384-well microplates and incubated for the overnight prior to testing.
Agonist format: For Agonist determination, cells were incubated with sample to induce response. Dilution of sample stocks was performed to generate 100× sample in DMSO. Intermediate dilution of sample stocks was performed to generate 5× sample in assay buffer (Cell Plating Reagent 0 containing 1% FBS). 5 μL of 5× sample was added to cells and incubated at room temperature for 6 hours. Vehicle concentration was 1%.
Signal detection: Assay signal was generated through a single addition of 25 μL (100% v/v) of PathHunter Flash Detection reagent, followed by a one hour incubation at room temperature. Microplates were read following signal generation with a PerkinElmer Envision™ instrument for chemiluminescent signal detection.
Data analysis: Compound activity was analyzed using CBIS data analysis suite (ChemInnovation, CA). For agonist mode assays, percentage activity was calculated using the following formula: % Activity=100%×(mean RLU of test sample−mean RLU of vehicle control)/(mean MAX RLU control ligand−mean RLU of vehicle control). For EC50 determination, a control agonist dose response curve was generated in the Keap 1-Nrf2 biosensor assay, data was normalized to the maximal and minimal response observed in the presence of the control ligand and vehicle respectively. CDDO methyl ester was used as a control compound. Compounds were tested in the agonist mode of the assay and data was normalized to the maximal and minimal response observed in the presence of control ligand and vehicle.

Nrf2-Keap1, sequence (Q14145 whole entry): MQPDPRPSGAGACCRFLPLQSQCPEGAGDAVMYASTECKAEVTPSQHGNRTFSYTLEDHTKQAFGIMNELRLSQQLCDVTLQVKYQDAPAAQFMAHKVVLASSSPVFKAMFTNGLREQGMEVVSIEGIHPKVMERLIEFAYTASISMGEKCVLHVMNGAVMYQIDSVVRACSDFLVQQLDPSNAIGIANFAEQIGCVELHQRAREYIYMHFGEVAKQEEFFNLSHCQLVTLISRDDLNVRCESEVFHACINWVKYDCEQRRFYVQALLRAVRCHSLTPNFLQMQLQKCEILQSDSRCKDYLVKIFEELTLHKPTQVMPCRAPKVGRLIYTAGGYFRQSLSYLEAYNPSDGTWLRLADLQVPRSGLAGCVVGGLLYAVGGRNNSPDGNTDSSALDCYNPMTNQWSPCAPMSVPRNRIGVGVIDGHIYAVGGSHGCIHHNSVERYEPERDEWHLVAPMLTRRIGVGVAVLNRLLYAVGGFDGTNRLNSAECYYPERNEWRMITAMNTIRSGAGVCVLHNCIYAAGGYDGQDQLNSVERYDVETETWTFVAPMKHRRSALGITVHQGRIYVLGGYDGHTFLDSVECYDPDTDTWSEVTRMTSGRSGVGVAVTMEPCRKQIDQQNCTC

With `C=C1CC[C@@H]2[C@]3(C)COS(=O)O[C@@H]3CC[C@@]2(C)[C@@H]1C/C=C1/C(=O)OC[C@H]1NC=O` (single isomer, unassigned) [Example 20], the concentration for a half-maximal effect (EC50) was in the range of 0.5 to 2 µM. This compound also came in with an activation at 10 µM (6 h) above 100%.
For the compound `C=C1CC[C@@H]2[C@]3(C)COS(=O)O[C@@H]3CC[C@@]2(C)[C@@H]1C/C=C1/C(=O)OC[C@H]1NC(=O)OC` (single isomer, unassigned) [Example 30], the activation at 10 µM (6 hours) was in the range of 51 to 100%.
`C=C1CC[C@@H]2[C@]3(C)COS(=O)O[C@@H]3CC[C@@]2(C)[C@@H]1C/C=C1/C(=O)OC[C@@H]1NC(=O)OC` (single isomer, unassigned) [Example 31]: the EC50 lay in the range of 0.5 to 2 µM. Moreover, the activation at 10 µM (6 hours) was above 100%.
Consider `C=C1CC[C@@H]2[C@]3(C)COCO[C@@H]3CC[C@@]2(C)[C@@H]1C/C=C1/C(=O)OCC1NC=O` (single isomer, unassigned) [Example 39A], for which the EC50 fell in the range of 0.5 to 2 µM. Further, under “6 hours”, the “% Activation @ 10 μM” value is listed as “A (A: >100%)”.
As for `C=C1CC[C@@H]2[C@]3(C)COCO[C@@H]3CC[C@@]2(C)[C@@H]1C/C=C1/C(=O)OCC1NC=O` (single isomer, unassigned) [Example 39B], the “% Activation @ 10 μM” value (6 hours) is listed as “B (B: 51 to 100%)”.
Compound `C=C1CC[C@@H]2[C@]3(C)COS(=O)O[C@@H]3CC[C@@]2(C)[C@@H]1C/C=C1/C(=O)OCC1NC(=O)COC` (single isomer, unassigned) [Example 40B] registered a half-maximal effective concentration (EC50) of 0.5 to 2 µM. Further, the activation at 10 µM (6 hours) was above 100%.
`C=C1CC[C@@H]2[C@]3(C)COS(=O)O[C@@H]3CC[C@@]2(C)[C@@H]1C/C=C1/C(=O)OCC1NC(=O)CO` (single isomer, unassigned) [Example 41A] yielded a concentration for a half-maximal effect (EC50) above 2 µM.
In turn, `C=C1CC[C@@H]2[C@]3(C)COS(=O)O[C@@H]3CC[C@@]2(C)[C@@H]1C/C=C1/C(=O)OCC1NC(=O)CO` (single isomer, unassigned) [Example 41B] registered a concentration for a half-maximal effect (EC50) of 0.5 to 2 µM.
Compound `C=C1CC[C@@H]2[C@@H](C)[C@@](O)(C(F)(F)F)CC[C@@]2(C)[C@@H]1C/C=C1/C(=O)OCC1NC=O` (single isomer, unassigned) [Example 43A] came in with an EC50 of 0.5 to 2 µM.
The same measure, in the same setting: for `C=C1CC[C@@H]2[C@@H](C)[C@@](O)(C(F)(F)F)CC[C@@]2(C)[C@@H]1C/C=C1/C(=O)OCC1NC=O` (single isomer, unassigned) [Example 43B] the value was below 0.5 µM; for `C=C1CC[C@@H]2[C@@H](C)[C@](O)(C(F)(F)F)CC[C@@]2(C)[C@@H]1C/C=C1/C(=O)OCC1NC=O` (single isomer, unassigned) [Example 44A], above 2 µM; for `C=C1CC[C@@H]2[C@@H](C)[C@](O)(C(F)(F)F)CC[C@@]2(C)[C@@H]1C/C=C1/C(=O)OCC1NC=O` (single isomer, unassigned) [Example 44B], 0.5 to 2 µM.
The same measure, in the same setting: for `C=C1CC[C@@H]2[C@]3(C)COCO[C@@H]3CC[C@@]2(C)[C@@H]1C/C=C1/C(=O)OCC1NC(C)=O` (single isomer, unassigned) [Example 45A] the value was above 2 µM; for `C=C1CC[C@@H]2[C@]3(C)COCO[C@@H]3CC[C@@]2(C)[C@@H]1C/C=C1/C(=O)OCC1NC(C)=O` (single isomer, unassigned) [Example 45B], above 2 µM.
`C=C1CC[C@@H]2[C@]3(C)COCO[C@@H]3CC[C@@]2(C)[C@@H]1C/C=C1/C(=O)OCC1NC(=O)COC` (single isomer, unassigned) [Example 46A] had an EC50 above 2 µM.
`C=C1CC[C@@H]2[C@]3(C)COCO[C@@H]3CC[C@@]2(C)[C@@H]1C/C=C1/C(=O)OCC1NC(=O)COC` (single isomer, unassigned) [Example 46B]: the 50% effective concentration (EC50) was above 2 µM.
With `C=C1CC[C@@H]2[C@@H](C)[C@@H](O)CC[C@@]2(C)[C@@H]1C/C=C1/C(=O)OC[C@H]1O` [Example 1, (S,E)-4-hydroxy-3-(2-((1R,4aR,5R,6S,8aR)-6-hydroxy-5,8a-dimethyl-2-methylenedecahydronaphthalen-1-yl)ethylidene)dihydrofuran-2(3H)-one], the concentration for a half-maximal effect (EC50) was in the range of 0.5 to 2 µM. For the same compound, the activation at 10 µM (6 h) was in the range of 51 to 100%.
`C=C1CC[C@@H]2[C@@H](C)[C@H](O)CC[C@@]2(C)[C@@H]1C/C=C1/C(=O)OC[C@H]1O` [Example 2, (S,E)-4-hydroxy-3-(2-((1R,4aR,5R,6R,8aR)-6-hydroxy-5,8a-dimethyl-2-methylenedecahydronaphthalen-1-yl)ethylidene)dihydrofuran-2(3H)-one] returned an EC50 below 0.5 µM. The compound further showed an activation at 10 µM (6 h) above 100%.
As to `CC1=CC[C@@H]2[C@@H](C)[C@H](O)CC[C@@]2(C)[C@@H]1C/C=C1/C(=O)OC[C@H]1O` [Example 3, (S,E)-4-hydroxy-3-(2-((1R,4aR,5R,6R,8aR)-6-hydroxy-2,5,8a-trimethyl-1,4,4a,5,6,7,8,8a-octahydronaphthalen-1-yl)ethylidene)dihydrofuran-2(3H)-one], the concentration for a half-maximal effect (EC50) is below 0.5 µM. The activation at 10 µM (6 h) was above 100%.
In turn, `C=C1CC[C@@H]2[C@@H](C)[C@](C)(O)CC[C@@]2(C)[C@@H]1C/C=C1/C(=O)OC[C@H]1O` [Example 4, (S,E)-4-hydroxy-3-(2-((1R,4aR,5R,6R,8aR)-6-hydroxy-5,6,8a-trimethyl-2-methylenedecahydronaphthalen-1-yl)ethylidene)dihydrofuran-2(3H)-one] displayed an EC50 below 0.5 µM. Moreover, the activation at 10 µM (6 h) is above 100%.
In turn, `C=C1CC[C@@H]2[C@@H](C)[C@@](C)(O)CC[C@@]2(C)[C@@H]1C/C=C1/C(=O)OC[C@H]1O` [Example 5, (S,E)-4-hydroxy-3-(2-((1R,4aR,5R,6S,8aR)-6-hydroxy-5,6,8a-trimethyl-2-methylenedecahydronaphthalen-1-yl)ethylidene)dihydrofuran-2(3H)-one] came in with an EC50 below 0.5 µM. In addition, the activation at 10 µM (6 h) was above 100%.
`C=C1CC[C@H]2[C@@](C)(CC[C@](C)(O)[C@@]2(C)CO)[C@@H]1C/C=C1/C(=O)OC[C@H]1O` [Example 6, (S,E)-4-hydroxy-3-(2-((1R,4aS,5R,6S,8a5)-6-hydroxy-5-(hydroxymethyl)-5,6,8a-trimethyl-2-methylenedecahydronaphthalen-1-yl)ethylidene)dihydrofuran-2(3H)-one] had an activation at 10 µM (6 h) of 51 to 100%.
As to `C=C1CC[C@H]2[C@@](C)(CC[C@@](C)(O)[C@@]2(C)CO)[C@@H]1C/C=C1/C(=O)OC[C@H]1O` [Example 7, (S,E)-4-hydroxy-3-(2-((1R,4aS,5R,6R,8a5)-6-hydroxy-5-(hydroxymethyl)-5,6,8a-trimethyl-2-methylenedecahydronaphthalen-1-yl)ethylidene)dihydrofuran-2(3H)-one], the activation at 10 µM (6 h) was 51 to 100%.
For the compound `C=C1CC[C@@H]2[C@]3(C)CO[S@](=O)O[C@@H]3CC[C@@]2(C)[C@@H]1C/C=C1/C(=O)OC[C@H]1O` [Example 8, (S,E)-3-(2-((3S, 4aR, 6aS, 7R, 10aS, 10bR)-6a,10b-dimethyl-8-methylene-3-oxidodecahydro-1H-naphtho[2,1-d][1,3,2]dioxathiin-7-yl)ethylidene)-4-hydroxydihydrofuran-2(3H)-one], the half-maximal effective concentration (EC50) fell in the range of 0.5 to 2 µM. Also, where the note is “6 h”, the activation at 10 µM is above 100%.
`C=C1CC[C@@H]2[C@]3(C)CO[S@@](=O)O[C@@H]3CC[C@@]2(C)[C@@H]1C/C=C1/C(=O)OC[C@H]1O` [Example 9, (S,E)-3-(2-((3R,4aR,6aS,7R,10aS,10bR)-6a,10b-dimethyl-8-methylene-3-oxidodecahydro-1H-naphtho[2,1-d][1,3,2]dioxathiin-7-yl)ethylidene)-4-hydroxydihydrofuran-2(3H)-one] displayed a 50% effective concentration (EC50) of 0.5 to 2 µM.
As to `C=C1CC[C@@H]2[C@]3(C)CO[S@](=O)O[C@@H]3CC[C@@]2(C)[C@@H]1C/C=C1/C(=O)OC[C@@H]1O` [Example 10, (R,E)-3-(2-((3S,4aR,6aS,7 R,10aS,10bR)-6a,10b-dimethyl-8-methylene-3-oxidodecahydro-1H-naphtho[2,1-d][1,3,2]dioxathiin-7-yl)ethylidene)-4-hydroxydihydrofuran-2(3H)-one], the activation at 10 µM (6 h) lay within 51 to 100%.
`C=C1CC[C@H]2[C@@](C)(CCC3=NOC[C@]32C)[C@@H]1C/C=C1/C(=O)OC[C@H]1O` [Example 11, (S,E)-3-(2-((5aS,6R,9aS,9bS)-5a,9b-dimethyl-7-methylene-1,4,5,5a,6,7,8,9,9a,9b-decahydronaphtho[2,1-c]isoxazol-6-yl)ethylidene)-4-hydroxydihydrofuran-2(3H)-one]: the EC50 was in the range of 0.5 to 2 µM. Further, the activation at 10 µM (6 h) is above 100%.

The EC50 is the concentration giving half of the maximal effect. High values mean weaker potency, low ones greater potency.

(Values after patent US20170354639A1, “DITERPENOID DERIVATIVES AND METHODS OF USE THEREOF” (Biogen MA Inc., priority 2014, published 2017).)
